Assay results as given in a melting point compilation (Tetko et al.).

Compound	melting point
CC1C(=O)NCCN1C(=O)c1ccc(Cl)s1 (centres undefined)	149 to 151 °C
Cc1cc(C(=O)CCl)c(C)n1-c1cccc(S(=O)(=O)N2CCOCC2)c1	171 to 173 °C
Oc1ccc2c(c1)CNCC2	194 to 196 °C
O=C(CCl)NCC(=O)Nc1ccccc1Br	218 to 220 °C
COC(=O)c1ccc(N)s1	115 to 117 °C
Nc1cc(N2CCOC2=O)ccc1F	119 to 121 °C
Cc1cc(N)n(C2CCS(=O)(=O)C2)n1 (centres undefined)	215 to 217 °C
O=C(O)c1cc(-c2ccco2)nc2cc(F)ccc12	272 to 274 °C
Cc1ccc(C)c(-n2c(=O)c(N)c(C)n2C)c1	19 to 20 °C
O=C(CCl)NC1CCOc2ccccc21 (centres undefined)	86 to 88 °C
COc1cc(NC(C)=O)ccc1N	128 to 130 °C
O=C(NO)C1CCCC1	107 to 109 °C
N#CCN1CCSCC1	51 to 53 °C
Cc1sc(N)c(C(=O)O)c1C	120 to 122 °C
Nc1ccccc1OCCN1CC(=O)Nc2ccccc21	147 to 149 °C
Nc1ccc(-c2cn3ccsc3n2)cc1	199 to 201 °C
O=C(O)C1CCN(c2ncccn2)CC1	94 to 96 °C
COc1ccc(C=O)cc1SC	44 to 46 °C
Cc1ccc(C#N)cc1S(N)(=O)=O	194 to 196 °C
CC(=O)N(C)c1ccccc1C(=O)O	196 to 198 °C
COCCN1C(=O)CC(=O)NC1=S	148 to 150 °C
ONCc1ccc(F)cc1	59 to 61 °C
ClCc1cn2cccnc2n1	125 to 127 °C
O=C(O)c1cc([N+](=O)[O-])cc(S(=O)(=O)Cl)c1	162 to 164 °C
Nc1nc(N)nc(C2CCCC2)n1	202 to 204 °C

Compound	melting point
Oc1ccccc1SC(F)(F)F	32 to 34 °C
SCCCNc1ncccn1	45 to 47 °C
Sc1ccc2c(c1)OCCCO2	41 to 43 °C
N#Cc1ccc(CS(N)(=O)=O)cc1	154 to 156 °C
Nc1nnc(-c2ccc3c(c2)CCC3)o1	273 to 275 °C
O=S(=O)(F)Cc1ccccc1Cl	69 to 71 °C
O=C(O)c1cccnc1-n1ccnc1	179 to 181 °C
O=C(O)CNC(=O)c1ccc(S(=O)(=O)Cl)cc1	130 to 132 °C
CC1CCCC(C)N1C(=O)CCl (centres undefined)	71 to 73 °C
O=C(O)Cc1ccc(OC(F)F)cc1	78 to 80 °C
CCN(CC)c1ccc(N)cc1S(=O)(=O)Nc1ccc(OC)cc1	107 to 109 °C
Clc1nccc(-n2cccn2)n1	118 to 120 °C
Cc1ccc(C(N)=S)o1	149 to 151 °C
NS(=O)(=O)c1ccc(CN=C=S)cc1	159 to 161 °C
Cc1n[nH]c2ncc(C=O)cc12	202 to 204 °C
CCC(NC(=O)OC(C)(C)C)C(=O)O (centres undefined)	88 to 90 °C
Cc1nsc2ncc(C(=O)O)cc12	179 to 181 °C
CC(C)(NC(=O)c1ccccc1)C(N)=S	165 to 167 °C
COc1ccc(NS(=O)(=O)c2cc(N)ccc2OC)cc1	133 to 135 °C
[N-]=[N+]=Nc1ccnc(C(N)=O)c1	169 to 171 °C
CCOc1cc(C=O)cc(Cl)c1OC	55 to 57 °C
CCOC(=O)c1sc2nc(CSc3ccccc3)nc(Cl)c2c1C	52 to 54 °C
O=Cc1cnc2ncccn12	197 to 199 °C
O=C(O)c1cc([N+](=O)[O-])c(F)cc1Cl	151 to 153 °C
COc1ccc(-n2ccnc2SCC(=O)O)cc1	125 to 127 °C

Compound	melting point
O=Cc1cc(-n2ccnc2)cs1	123 to 125 °C
CCOC(=O)C(C)=NNc1ccc(Br)cc1CC	68 to 70 °C
O=C(O)CCNS(=O)(=O)c1c(Cl)cccc1Cl	119 to 121 °C
O=C(O)CCSc1ccccc1F	118 to 120 °C
Cc1cc(N)ccc1Oc1cccnc1	90 to 92 °C
NS(=O)(=O)N1CCOc2ccccc21	135 to 137 °C
CCOC(=O)c1sc2nc(N3CCOCC3)[nH]c(=O)c2c1C	296 to 298 °C
Cc1c(C(=O)O)sc2nnc(S)n12	275 to 277 °C
CCCNC(=O)c1cccc(O)c1	68 to 70 °C
CC(=O)NCCOc1ccc(N)cc1	92 to 94 °C
O=C(O)c1nn(-c2cccc(F)c2)ccc1=O	219 to 221 °C
CC(NC(=O)Nc1ccccc1)C(=O)O (centres undefined)	180 to 182 °C
Cc1sc(NC(=O)C2CC2)c(C(=O)O)c1C	148 to 152 °C
CC=C(C)C=CC(=O)O	89 to 91 °C
O=c1[nH]c2c(c(=O)[nH]1)CCCC2	304 to 306 °C
COC(=O)c1ccc(CNc2ccc3c[nH]nc3c2)cc1	152 to 154 °C
CNCCCc1n[nH]c(N)c1C#N	179 to 181 °C
O=C(O)C1CCCN1Cc1ccc(F)cc1 (centres undefined)	242 to 244 °C
Nc1ncccc1OCC1CCCCC1	117 to 119 °C
O=C(CCl)NC(=O)NCCC1=CCCCC1	200 to 202 °C
CCOc1cc(C=O)cc(Br)c1OC(F)F	94 to 96 °C
Cc1cc(N)nn1-c1ccc(F)cc1F	120 to 122 °C
O=C(O)Cc1ccc([N+](=O)[O-])cc1Cl	157 to 159 °C
CSCCC(NS(=O)(=O)c1ccccc1F)C(=O)O (centres undefined)	104 to 106 °C
COc1ccccc1C1CC1C(=O)O (centres undefined)	137 to 139 °C

Compound	melting point
NNc1c(F)cc(C(=O)NC2CC2)cc1F	204 to 206 °C
CC(CC(=O)O)c1ccc(F)cc1 (centres undefined)	64 to 66 °C
COC(=O)Cc1nnc(N)[nH]1	159 to 161 °C
CSc1nc(C)c(CC(=O)O)s1	146 to 148 °C
Cc1c(C2CC2)nc2ccc(Br)cc2c1C(=O)O	218 to 220 °C
CS(=O)(=O)c1ccc(C(=O)NN)cc1	189 to 191 °C
CC(O)c1ccc(O)cc1 (centres undefined)	131 to 133 °C
COC(=O)C(=O)CC(=O)c1cc(F)ccc1F	145 to 147 °C
Cc1nc2ccccc2n1CC(=O)NN	233 to 235 °C
O=C(CCl)Nc1ccnn1Cc1ccccc1	99 to 101 °C
O=C(O)CCc1nc2ccccc2[nH]1	229 to 231 °C
CNc1ccc(OCCOC)cc1	59 to 61 °C
CCn1cc(C=O)c2ccccc21	104 to 106 °C
O=C(O)CCc1nc2ccccc2s1	97 to 99 °C
O=C(CCl)NCC1Cc2ccccc2O1 (centres undefined)	94 to 96 °C
COC(=O)c1ccc(F)cc1N	62 to 64 °C
Cc1nc(S)n(C2CCCCC2)c1C	218 to 220 °C
N#CCCSc1ccccc1N	45 to 47 °C
NC(=O)c1cccc(F)c1I	189 to 191 °C
Cc1c(C(=O)O)cnn1C(C)C	142 to 144 °C
Oc1ccc(Cl)cc1-c1cc(-c2ccco2)[nH]n1	166 to 168 °C
CC(C)c1ccc(CCC(=O)O)cc1	71 to 73 °C
CN1C(=O)NC(=O)C12CCCCC2	172 to 174 °C
N#CC1=C(Cl)CCCC1	38 to 40 °C
CN(C)c1ccc2cc(N)ccc2n1	84 to 86 °C

Compound	melting point
COC(=O)c1cc(C)c(C)c(S(=O)(=O)Cl)c1	61 to 63 °C
COc1ncc(C(=O)O)cn1	219 to 221 °C
c1ccc2sc(NCC3CCCO3)nc2c1 (centres undefined)	130 to 132 °C
O=C(O)C1CC1[N+](=O)[O-] (centres undefined)	123 to 125 °C
CC(C)(C)OC(=O)N1CC2CCC(O)C2C1 (centres undefined)	61 to 63 °C
CCn1nc(C)c(C(=O)O)c1C(F)(F)Cl	111 to 113 °C
O=C(O)c1oc2ccccc2c1COc1ccccc1Cl	190 to 192 °C
Cc1sc2ncnc(NN)c2c1C	208 to 210 °C
CC(C)(C)OC(=O)N1CCc2ccccc21	46 to 50 °C
CC(=O)c1ccc(C)c([N+](=O)[O-])c1	59 to 62 °C
CCCCN(CC)c1ccc(C(=O)O)cc1	137 to 139 °C
O=C1CCC(O)(C(F)(F)F)CC1	123 to 125 °C
O=C(COc1ccccc1C(=O)O)Nc1ccc(Br)cc1	241 to 243 °C
O=C1NCNC(=O)N1	290 to 292 °C
Cn1c(=O)n(C)c2cc(N)ccc21	148 to 150 °C
CC(Cl)C(=O)NC(C)c1ccc(Cl)cc1 (centres undefined)	127 to 129 °C
NC(CN1CCC(O)CC1)=NO	182 to 184 °C
O=C(CCl)Nc1ccc(Oc2cccc(Cl)c2)cc1	117 to 119 °C
CCOC(=O)c1sc(N)c(C#N)c1C	212 to 214 °C
CC(=O)Nc1ccc2c(c1)CN(C(=O)OC(C)(C)C)CC2	110 to 112 °C
NN1C(=O)CNC1=O	190 to 192 °C
CCCOc1ccc2[nH]cc(CO)c2c1	89 to 91 °C
CCN1CCc2nc3ccccc3c(C(=O)O)c2C1	278 to 280 °C
Nc1nc(C(=O)O)n[nH]1	178 to 182 °C
Cc1cc(NC(=O)C2CCCC2)sc1C(=O)O	174 to 176 °C

Compound	melting point
O=c1c2ccccc2[nH]c2ccc(O)cc12	319 to 321 °C
Cc1nc(C(N)=O)c(N)n1C	159 to 161 °C
NC(=O)c1cccc(NCc2ccc(F)cc2)c1	136 to 138 °C
C/C(=N\O)c1sc(C)nc1C	131 to 133 °C
Cc1c(NS(=O)(=O)c2cc(C(=O)O)cc(Cl)c2Cl)c(=O)n(-c2ccccc2)n1C	155 to 157 °C
CC(Cl)C(=O)Nc1cccc(C#N)c1 (centres undefined)	108 to 110 °C
COc1cc(C=O)cc(Br)c1OC(F)F	90 to 92 °C
[N-]=[N+]=Nc1cccc2ncccc12	61 to 63 °C
CN1CCN(C(N)=S)CC1	179 to 181 °C
Nc1ncc(Cc2ccccc2)s1	106 to 108 °C
NC(=O)c1ccsc1NC(=O)CCC(=O)O	243 to 245 °C
CNC(=O)c1cc(OC)ccc1N	119 to 121 °C
O=C1CCCCCN1CO	63 to 67 °C
Cc1nn(-c2ccccn2)c2nc(C3CC3)cc(C(=O)O)c12	237 to 239 °C
CCOc1ccc(C(=O)CC)cc1OCC	39 to 41 °C
N#Cc1cccc(NC(=O)CCl)c1	143 to 145 °C
COC(=O)c1nc(Cl)c2ccccc2c1O	162 to 164 °C
CC(C)c1ccccc1Nc1nc2ccccc2s1	115 to 116 °C
NCc1cc[nH]n1	58 to 60 °C
CCCN1C(=O)CC(=O)NC1=S	127 to 129 °C
O=C(O)c1c(-n2cccc2)sc2c1CCCC2	158 to 162 °C
Cc1ccc(-c2nn(Cc3ccccc3)cc2/C=C/C(=O)O)cc1	107 to 109 °C
O=S(=O)(Cl)c1cc2c(cc1Cl)OCCCO2	92 to 94 °C
O=C(Nc1ccc(F)cc1)N1CCC(=NO)CC1	183 to 185 °C
